Patent US20190153024A1, “NOVEL SALTS AND POLYMORPHS OF SCY-078” (priority 2015, published 2019)

How the values were obtained:
[1] = Kinetic solubility of SCY-078 freebase (MeOH desolvate, amorphous freebase); assay type: physicochemical; conditions: for Form: residual solid by XRPD; for kinetic solubility (in words): room temperature
Method: Kinetic Solubility of SCY-078 Freebase: The kinetic solubility of SCY-078 MeOH desolvate and SCY-078 amorphous freebase was evaluated in SGF media, FaSSIF media, FeSSIF media, dextrose buffer (pH 5.5), phosphate buffer (pH 6.0), and phosphate buffer (pH 7.5) at room temperature. First, solid SCY-078 MeOH desolvate or SCY-078 amorphous freebase (˜15 mg) was weighed into a 4-mL vial. Then the relevant media (3.0 mL) was added and the suspensions were stirred on a rolling incubator (25 rpm) at room temperature for 1 hour, 4 hours, and 24 hours respectively. After stirring, 0.5 mL of suspension was centrifuged and filtered (0.45 μm). The residual solids were analyzed by XRPD, and the supernatant was measured by HPLC and pH meter.

[2] = Kinetic solubility of trifluoroacetate Types A and B and HCl Type I (alternative procedure: SGF, FaSSIF and FeSSIF alternative media, acetate pH 5.5, phosphate pH 6.0 alternative media); conditions: residual solid by XRPD
Method: An alternative media (“FaSSIF alternative media”) was used to study the trifluoroacetate salts (Type A and B) and the HCl Type I salt. More specifically, the media was prepared by weighing 0.17 g of sodium phosphate monobasic (NaH2PO4, anhydrous), 0.021 g of sodium hydroxide, and 0.31 g of sodium chloride into a 50-mL volumetric flask and was dissolve with approximately 48 mL of purified water. The pH was adjusted to exactly 6.5 using 1 M HCl or 1 M NaOH and diluted to volume with purified water. 0.11 g of SIF powder was then added, stirred and sonicated until all the powder was completely dissolved. The solution was equilibrated for 2 hours at RT before use. The solution can be stored at RT for 48 hours or 4° C. for 7 days and should be equilibrated to RT before use
An alternative media (“FeSSIF alternative media”) was used to study the trifluoroacetate salts (Type A and B) and the HCl Type I salt. More specifically, the media was prepared by transferring 0.41 mL of glacial acid and weighing 0.20 g of sodium hydroxide, 0.59 g of sodium chloride into a 50-mL volumetric flask. This was dissolved with approximately 48 mL of purified water. The pH was adjusted to exactly 5.0 using 1 M HCl or 1 M NaOH and diluted to volume with purified water. 0.56 g of SIF powder was added, stirred and sonicated until all the powder is completely dissolved. The solution can be stored at RT for 48 hours or 4° C. for 7 days and should be equilibrated to RT before use.
Acetate Buffer (pH 5.5) Preparation—The acetate buffer (pH 5.5) used for the trifluoroacetate salts (Type A and B) and the HCl Type I salt was prepared by placing 0.60 g sodium acetate (NaC2H3O2.3H2O) in a 100-mL volumetric flask, adding 3 mL of 2 M acetic acid solution, and then adding purified water to volume.
An alternative media (“phosphate (pH 6.0) alternative media”) was used to study the trifluoroacetate salts (Type A and B) and the HCl Type I salt. More specifically, the media was prepared by dissolving 2.72 g of 0.2 M monobasic potassium phosphate (KH2PO4) in purified water, and diluting with purified water t 100 mL. 0.8 g of 0.2 M sodium hydroxide in purified water was diluted with purified water to 100 mL. Then 50 mL of the 0.2 M monobasic potassium phosphate solution was placed in a 200-mL volumetric flask, 5.6 mL of 0.2 M sodium hydroxide solution was added, and then purified water was added to volume.
The trifluoroacetate salts (Type A and B) and the HCl Type I salt were tested using the following alternative procedure. First, 15 mg, 36 mg or 90 mg solid was weighted into a 4-mL plastic tube, and 3 mL of relevant media was added before leaving the suspension on a rolling incubator (25 r/min). For SCF, 90 mg of solid was used. For FaSSIF, acetate buffer (pH 5.5), and phosphate buffer (pH 6.0), 15 mg solid was used. For FeSSIF, 36 mg of solid was used. 1.0 mL aliquot of the suspension was sampled for centrifugation with the supernatant submitted for HPLC and pH measurement and solid for XRPD characterization at 1 hr, 4 hr and/or 24 hrs.
The solubility of trifluoroacetate Type A, Type B and HCl Type I was measured in SGF at ambient temperature. Approximately 90 mg of solid sample was weighted into a 4-mL centrifuge tube, and 3 mL of SGF buffer was added before leaving the suspension on a rolling incubator (25 r/min). 1.0 mL aliquot of the suspension was sampled for centrifugation (10000 rpm, 3 mins) the supernatant was analyzed by HPLC and pH measurement and solid by XRPD characterization at 1 hr, 4 hr and 24 hrs, respectively.
The solubility of trifluoroacetate Type A, Type B and hydrochloride Type I was measured in the FaSSIF alternative media at ambient temperature. Approximately 15 mg of solid sample was weighted into a 4-mL plastic tube, and 3 mL of the media was added before leaving the suspension on a rolling incubator (25 r/min).

[3] = Physical and chemical stability of trifluoroacetate Types A and B and HCl Type I for 1, 2, 4 and 8 weeks; assay type: physicochemical
Method: High Power Liquid Chromatography (HPLC) Method—An Agilent 1260 HPLC with DAD detector was utilized to test solubility or to test purity and stability. […] System suitability was tested by injecting standard solutions five times in each sample sequence, and the relative standard deviation of the peak areas was less than 2%.
Physical and chemical stability evaluation of trifluoroacetate Type A, trifluoroacetate Type B, and HCl Type I was performed at 25° C./60% RH, 40° C./75% RH and 60° C. for 1, 2, 4 and 8 weeks. In the experiments, approximately 20 mg of solid was placed into a 1.5-mL glass vial. The vials were stored under 25° C./60% RH (uncapped), 40° C./75% RH (uncapped) and 60° C. (capped) conditions for 8 weeks. XRPD analysis was then employed to check the crystalline form of the solid, and HPLC was utilized to determine the purity profile at 1, 2, 4 and 8 weeks. […] The solid form change of trifluoroacetate Type A at 2 and 4 weeks was postulated to the air-exposure when the sample was taken out for XRPD characterization.

[4] = Chemical and physical stability of SCY-078 salts on storage (25° C./60% RH, 40° C./75% RH, 60° C.); assay type: physicochemical
Description: For all compounds tested other than the trifluoroacetate salts (Type A and B) and the HCl Type I and II salts, the conditions and parameters used for measuring solubility are shown in Table 2A and for measuring stability are showing in Table 3A. The conditions and parameters used for the solubility of the trifluoroacetate salts (Type A and B) and the HCl Type I and II salts are shown in Table 2B and for stability are shown in Table 3B.

[5] = 25° C./60% RH (uncapped), 1 week
[6] = 25° C./60% RH (uncapped), 2 weeks
[7] = 25° C./60% RH (uncapped), 4 weeks
[8] = 25° C./60% RH (uncapped), 8 weeks
[9] = 40° C./75% RH (uncapped), 1 week
[10] = 40° C./75% RH (uncapped), 2 weeks
[11] = 40° C./75% RH (uncapped), 4 weeks
[12] = 40° C./75% RH (uncapped), 8 weeks
[13] = 25° C./60% RH, open dish, 4 days

## CC(C)[C@@H](C)[C@@]1(C)CC[C@]2(C)[C@H]3CC[C@@H]4[C@@]5(COC[C@]4(C)[C@@H](OC[C@](C)(N)C(C)(C)C)[C@H](n4ncnc4-c4ccncc4)C5)C3=CC[C@@]2(C)[C@@H]1C(=O)O [Desolv.]
[1]; FaSSIF, 1 hour
  Form: NF 1
[1]; FaSSIF, 4 hours
  Form: NF 1
[1]; FaSSIF, 24 hours
  Form: NF 1
[1]; FeSSIF, 1 hour
  Form: NF 1
[1]; FeSSIF, 4 hours
  Form: NF 1
[1]; FeSSIF, 24 hours
  Form: NF 1
[1]; pH 5.5 buffer, 4 hours
  Form: NF 2
[1]; pH 5.5 buffer, 24 hours
  Form: NF 2
[1]; pH 6.0 buffer, 4 hours
  Form: NF 1
[1]; pH 6.0 buffer, 24 hours
  Form: NF 3
[1]; pH 7.5 buffer, 4 hours
  Form: Desolv.
[1]; pH 7.5 buffer, 24 hours
  Form: Desolv.

## CC(C)[C@@H](C)[C@@]1(C)CC[C@]2(C)[C@H]3CC[C@@H]4[C@@]5(COC[C@]4(C)[C@@H](OC[C@](C)(N)C(C)(C)C)[C@H](n4ncnc4-c4ccncc4)C5)C3=CC[C@@]2(C)[C@@H]1C(=O)O [SCY-078 MeOH desolvate]
[1]; FaSSIF and pH 5.5, pH 6.0, pH 7.5 buffers
  kinetic solubility (in words): only sparingly soluble
[1]; FeSSIF, FaSSIF, pH 5.5 and 6.0 buffers
  solid form change during solubility measurement: Solid form change was observed
[1]; SGF and FeSSIF
  kinetic solubility (in words): high solubility

## CC(C)[C@@H](C)[C@@]1(C)CC[C@]2(C)[C@H]3CC[C@@H]4[C@@]5(COC[C@]4(C)[C@@H](OC[C@](C)(N)C(C)(C)C)[C@H](n4ncnc4-c4ccncc4)C5)C3=CC[C@@]2(C)[C@@H]1C(=O)O.O=C(O)C(F)(F)F [TFA Type A]
[2]; FaSSIF alternative media, 1 hr
  Form change: No
[2]; FaSSIF alternative media, 4 hrs
  Form change: No
[2]; FaSSIF alternative media, 24 hrs
  Form change: No
[2]; SGF, 1 hr
  Form change: No
[2]; SGF, 4 hrs
  Form change: No
[2]; SGF, 24 hrs
  Form change: No
[2]; acetate buffer (pH 5.5), 4 hrs
  Form change: No
[2]; acetate buffer (pH 5.5), 24 hrs
  Form change: No
[3]; [5]
  HPLC purity: 99.9%
  Solid form: Type A
[3]; [6]
  HPLC purity: 99.9%
  Solid form: Type B
[3]; [7]
  HPLC purity: 99.9%
  Solid form: Type A + B
[3]; 25° C./60% RH (uncapped), 6 weeks
  Solid form: Type A
[3]; [8]
  HPLC purity: 99.9%
  Solid form: Type A
[3]; [9]
  HPLC purity: 99.9%
  Solid form: Type A
[3]; [10]
  HPLC purity: 99.9%
  Solid form: Type B
[3]; [11]
  HPLC purity: 99.9%
  Solid form: Type A + B
[3]; 40° C./75% RH (uncapped), 6 weeks
  Solid form: Type A
[3]; [12]
  HPLC purity: 99.9%
  Solid form: Type A
[3]; 60° C. (capped), 1 week
  HPLC purity: 99.9%
  Solid form: Type A
[3]; 60° C. (capped), 2 weeks
  HPLC purity: 99.9%
  Solid form: Type B
[3]; 60° C. (capped), 4 weeks
  HPLC purity: 99.9%
  Solid form: Type A + B
[3]; 60° C. (capped), 6 weeks
  Solid form: Type A
[3]; 60° C. (capped), 8 weeks
  HPLC purity: 99.9%
  Solid form: Type A
[3]; Initial
  Initial HPLC purity: 99.9%

## CC(C)[C@@H](C)[C@@]1(C)CC[C@]2(C)[C@H]3CC[C@@H]4[C@@]5(COC[C@]4(C)[C@@H](OC[C@](C)(N)C(C)(C)C)[C@H](n4ncnc4-c4ccncc4)C5)C3=CC[C@@]2(C)[C@@H]1C(=O)O.O=C(O)CC(O)(CC(=O)O)C(=O)O [Type S]
[4]; 25° C./60% RH, open dish, 1 week
  Impurity % by HPLC: 0.03%
[4]; 25° C./60% RH, open dish, 1 week, **Peak shifts were observed
  Solid form: Type S**
[4]; 40° C./75% RH, open dish, 1 week
  Impurity % by HPLC: 0.03%
[4]; 40° C./75% RH, open dish, 1 week, **Peak shifts were observed
  Solid form: Type S**
[4]; 60° C. closed, 1 week
  Solid form: Type S
[4]; 60° C., closed dish, 1 week
  Impurity % by HPLC: 0.11%
[4]; Initial
  Impurity % by HPLC: 0.10%

## CC(C)[C@@H](C)[C@@]1(C)CC[C@]2(C)[C@H]3CC[C@@H]4[C@@]5(COC[C@]4(C)[C@@H](OC[C@](C)(N)C(C)(C)C)[C@H](n4ncnc4-c4ccncc4)C5)C3=CC[C@@]2(C)[C@@H]1C(=O)O.O=C(O)CC(O)(CC(=O)O)C(=O)O [Type M]
[4]; [13]
  Impurity % by HPLC: 0.39%
  Solid form: Type M
[4]; 40° C./75% RH, open dish, 4 days
  Impurity % by HPLC: 0.00%
[4]; 40° C./75% RH, open dish, 4 days, *One peak change was observed
  Solid form: Type M*
[4]; 60° C. closed, 4 days
  Impurity % by HPLC: 0.63%
  Solid form: Type M
[4]; Initial
  Impurity % by HPLC: 0.42%

## CC(C)[C@@H](C)[C@@]1(C)CC[C@]2(C)[C@H]3CC[C@@H]4[C@@]5(COC[C@]4(C)[C@@H](OC[C@](C)(N)C(C)(C)C)[C@H](n4ncnc4-c4ccncc4)C5)C3=CC[C@@]2(C)[C@@H]1C(=O)O [Amorph.]
[1]; FaSSIF, 1 hour
  Form: Amorph.
[1]; FaSSIF, 4 hours
  Form: Amorph.
[1]; FaSSIF, 24 hours
  Form: Amorph.
[1]; FeSSIF, 1 hour
  Form: Amorph.
[1]; FeSSIF, 4 hours
  Form: Amorph.
[1]; FeSSIF, 24 hours
  Form: Amorph.
[1]; pH 5.5 buffer, 4 hours
  Form: Amorph.
[1]; pH 5.5 buffer, 24 hours
  Form: Amorph.
[1]; pH 6.0 buffer, 4 hours
  Form: Amorph.
[1]; pH 6.0 buffer, 24 hours
  Form: Amorph,
[1]; pH 7.5 buffer, 4 hours
  Form: Amorph.
[1]; pH 7.5 buffer, 24 hours
  Form: Amorph.
